The values below are quoted from earlier work in patent publication US8691290B2 (priority 2006, dated 2014).

The data set has as its system polymorphonuclear leukocytes (PMN) cells. To be noted: S. aureus with various concentrations of PVP-I, 6 hours.

As for polyvinylpyrolodone-iodine [PVP-I], the “TNF-α release from PMN cells” value was “released increasing amounts of TNF-α as PVP-I is diluted”.
